Test results as given in patent US9518018B2, “3-alkoxy, thioalkyl and amino-4-amino-6-(substituted)picolinates and their use as herbicides” (Dow AgroSciences LLC, priority 2011, dated 2016).

Columns and labels:
Experiment in all cases: In-water applied herbicidal activity in transplanted paddy rice
Type in all cases: in vivo
[1] = system: CYPDI = Cyperus difformis L. (small-flower flatsedge); details: for GR50 CYPDI: Table 7, dose to kill or control 50 percent; for GR50 CYPDI / GR90 CYPDI: 21 days after application; for GR90 CYPDI: Table 7, dose to kill or control 90 percent
Method: (§1) Weed seeds or nutlets of the desired test plant species were planted in puddled soil (mud) prepared by mixing a non-sterilized mineral soil (28 percent silt, 18 percent clay, and 54 percent sand, with a pH of about 7.3 to 7.8 and an organic matter content of about 1.0 percent) and water at a ratio of 100 kilograms (kg) of soil to 19 liters (L) of water. The prepared mud was dispensed in 250 mL aliquots into 480 mL non-perforated plastic pots with a surface area of 86.59 cm^2 leaving a headspace of 2.5 to 3 cm in each pot. Rice seeds were planted in Sun Gro MetroMix 306 planting mixture, which typically has a pH of 6.0 to 6.8 and an organic matter content of about 30 percent, in plastic plug trays. Seedlings at the second or third leaf stage of growth were transplanted into 650 mL of mud contained in 960 mL non-perforated plastic pots with a surface area of 86.59 cm^2 four days prior to herbicide application. The paddy was created by filling the 2.5 to 3 cm headspace of the pots with water. When required to ensure good germination and healthy plants, a fungicide treatment and/or other chemical or physical treatment was applied. The plants were grown for 4-14 d in a greenhouse with an approximate 14-h photoperiod which was maintained at about 29° C. during the day and 26° C. during the night. Nutrients were added as Osmocote (17:6:10, Nitrogen:Phosphorus:Potassium (N:P:K)+minor nutrients) at 2 grams (g) per cup. Water was added on a regular basis to maintain the paddy flood, and supplemental lighting was provided with overhead metal halide 1000-Watt lamps as necessary. The plants were employed for testing when they reached the second or third true leaf stage. Treatments consisted of compounds 45, 34, and 66. For technical grade compounds, a weighed amount, determined by the highest rate to be tested, was placed in an individual 120 mL glass vial and was dissolved in 20 mL of acetone to obtain concentrated stock solutions. […] The concentrated stock solutions obtained were diluted with 20 mL of an aqueous mixture containing 2.5% Agri-dex crop oil concentrate (v/v). Applications were made by injecting an appropriate amount of the stock solution into the aqueous layer of the paddy. Control plants were treated in the same manner with the solvent blank. All treated plant material received the same concentration of acetone and crop oil concentrate. The treated plants and control plants were placed in a greenhouse as described above and water was added as needed to maintain a paddy flood. After approximately 3 weeks, the condition of the test plants, compared with that of the untreated plants, was determined visually and scored on a scale of 0 to 100 percent where 0 corresponds to no injury and 100 corresponds to complete kill. By applying the well-accepted probit analysis as described by J. Berkson in Journal of the […], 48, 565 (1953) and by D. Finney in “Probit Analysis” Cambridge University Press (1952) or by plotting the mean data and fitting a logarithmic curve to the portion of the data where there was a dose response using Microsoft Excel®, the above data can be used to calculate GR50 and GR90 values, which are defined as growth reduction factors that correspond to the effective dose of herbicide required to kill or control 50 percent or 90 percent, respectively, of a target plant.

[2] = system: ORYSA = Oryza sativa ‘Wells’ (rice); details: for GR50 ORYSA ‘Wells’: Table 7, dose to kill or control 50 percent; for GR50 ORYSA ‘Wells’ / GR90 ORYSA ‘Wells’: 21 days after application; for GR90 ORYSA ‘Wells’: Table 7, dose to kill or control 90 percent
Method: as §1

[3] = system: SCPJU = Scirpus juncoides ROXB. (Japanese bulrush); details: for GR50 SCPJU: Table 7, dose to kill or control 50 percent; for GR50 SCPJU / GR90 SCPJU: 21 days after application; for GR90 SCPJU: Table 7, dose to kill or control 90 percent
Method: as §1

[4] = system: ORYSA = Oryza sativa ‘M202’ (rice); details: for GR50 ORYSA ‘M202’: Table 7, dose to kill or control 50 percent; for GR50 ORYSA ‘M202’ / GR90 ORYSA ‘M202’: 21 days after application; for GR90 ORYSA ‘M202’: Table 7, dose to kill or control 90 percent
Method: as §1

[5] = system: ECHCG = Echinochloa crus-galli (L.) P.BEAUV. (barnyardgrass); details: for GR50 ECHCG: Table 7, dose to kill or control 50 percent; for GR50 ECHCG / GR90 ECHCG: 21 days after application; for GR90 ECHCG: Table 7, dose to kill or control 90 percent
Method: as §1

[6] = system: MOOVA = Monochoria vaginalis (BURM.f.) C.PRESL ex KUNTH (monochoria); details: for GR50 MOOVA: Table 7, dose to kill or control 50 percent; for GR50 MOOVA / GR90 MOOVA: 21 days after application; for GR90 MOOVA: Table 7, dose to kill or control 90 percent
Method: as §1

COc1c(C(=O)O)nc(-c2ccc(Cl)c(OC)c2F)c(F)c1N [Compound 45, 4-amino-6-(4-chloro-2-fluoro-3-methoxyphenyl)-5-fluoro-3-methoxypicolinic acid]
Mean Visual Injury (%)-21 Days After Application CYPDI ([1]; Table 7, 8.75 g ae/ha): 67% | Mean Visual Injury (%)-21 Days After Application CYPDI ([1]; Table 7, 17.5 g ae/ha): 100% | Mean Visual Injury (%)-21 Days After Application CYPDI ([1]; Table 7, 35 g ae/ha): 100% | Mean Visual Injury (%)-21 Days After Application CYPDI ([1]; Table 7, 70 g ae/ha): 100% | Mean Visual Injury (%)-21 Days After Application CYPDI ([1]; Table 7, 140 g ae/ha): 100% | GR50 CYPDI [1]: <8.75 g ae/ha | GR90 CYPDI [1]: 14.2 g ae/ha | Mean Visual Injury (%)-21 Days After Application ORYSA ‘Wells’ ([2]; Table 7, 8.75 g ae/ha): 0% | Mean Visual Injury (%)-21 Days After Application ORYSA ‘Wells’ ([2]; Table 7, 17.5 g ae/ha): 0% | Mean Visual Injury (%)-21 Days After Application ORYSA ‘Wells’ ([2]; Table 7, 35 g ae/ha): 0% | Mean Visual Injury (%)-21 Days After Application ORYSA ‘Wells’ ([2]; Table 7, 70 g ae/ha): 0% | Mean Visual Injury (%)-21 Days After Application ORYSA ‘Wells’ ([2]; Table 7, 140 g ae/ha): 7% | GR50 ORYSA ‘Wells’ [2]: >140 g ae/ha | GR90 ORYSA ‘Wells’ [2]: >140 g ae/ha | Mean Visual Injury (%)-21 Days After Application SCPJU ([3]; Table 7, 8.75 g ae/ha): 10% | Mean Visual Injury (%)-21 Days After Application SCPJU ([3]; Table 7, 17.5 g ae/ha): 63% | Mean Visual Injury (%)-21 Days After Application SCPJU ([3]; Table 7, 35 g ae/ha): 93% | Mean Visual Injury (%)-21 Days After Application SCPJU ([3]; Table 7, 70 g ae/ha): 100% | Mean Visual Injury (%)-21 Days After Application SCPJU ([3]; Table 7, 140 g ae/ha): 100% | GR50 SCPJU [3]: 16.8 g ae/ha | GR90 SCPJU [3]: 42.4 g ae/ha | Mean Visual Injury (%)-21 Days After Application ORYSA ‘M202’ ([4]; Table 7, 8.75 g ae/ha): 0% | Mean Visual Injury (%)-21 Days After Application ORYSA ‘M202’ ([4]; Table 7, 17.5 g ae/ha): 0% | Mean Visual Injury (%)-21 Days After Application ORYSA ‘M202’ ([4]; Table 7, 35 g ae/ha): 0% | Mean Visual Injury (%)-21 Days After Application ORYSA ‘M202’ ([4]; Table 7, 70 g ae/ha): 0% | Mean Visual Injury (%)-21 Days After Application ORYSA ‘M202’ ([4]; Table 7, 140 g ae/ha): 12% | GR50 ORYSA ‘M202’ [4]: >140 g ae/ha | GR90 ORYSA ‘M202’ [4]: >140 g ae/ha | Mean Visual Injury (%)-21 Days After Application ECHCG ([5]; Table 7, 8.75 g ae/ha): 0% | Mean Visual Injury (%)-21 Days After Application ECHCG ([5]; Table 7, 17.5 g ae/ha): 0% | Mean Visual Injury (%)-21 Days After Application ECHCG ([5]; Table 7, 35 g ae/ha): 30% | Mean Visual Injury (%)-21 Days After Application ECHCG ([5]; Table 7, 70 g ae/ha): 100% | Mean Visual Injury (%)-21 Days After Application ECHCG ([5]; Table 7, 140 g ae/ha): 100% | GR50 ECHCG [5]: 38.4 g ae/ha | GR90 ECHCG [5]: 66.8 g ae/ha | Mean Visual Injury (%)-21 Days After Application MOOVA ([6]; Table 7, 8.75 g ae/ha): 100% | Mean Visual Injury (%)-21 Days After Application MOOVA ([6]; Table 7, 17.5 g ae/ha): 100% | Mean Visual Injury (%)-21 Days After Application MOOVA ([6]; Table 7, 35 g ae/ha): 100% | Mean Visual Injury (%)-21 Days After Application MOOVA ([6]; Table 7, 70 g ae/ha): 100% | Mean Visual Injury (%)-21 Days After Application MOOVA ([6]; Table 7, 140 g ae/ha): 100% | GR50 MOOVA [6]: <8.75 g ae/ha | GR90 MOOVA [6]: <8.75 g ae/ha

COC(=O)c1nc(-c2ccc(Cl)c(OC)c2F)c(F)c(N)c1OC [Compound 34]
Mean Visual Injury (%)-21 Days After Application CYPDI ([1]; Table 7, 8.75 g ae/ha): 100% | Mean Visual Injury (%)-21 Days After Application CYPDI ([1]; Table 7, 17.5 g ae/ha): 100% | Mean Visual Injury (%)-21 Days After Application CYPDI ([1]; Table 7, 35 g ae/ha): 100% | Mean Visual Injury (%)-21 Days After Application CYPDI ([1]; Table 7, 70 g ae/ha): 100% | Mean Visual Injury (%)-21 Days After Application CYPDI ([1]; Table 7, 140 g ae/ha): 100% | GR50 CYPDI [1]: <8.75 g ae/ha | GR90 CYPDI [1]: <8.75 g ae/ha | Mean Visual Injury (%)-21 Days After Application ORYSA ‘Wells’ ([2]; Table 7, 8.75 g ae/ha): 0% | Mean Visual Injury (%)-21 Days After Application ORYSA ‘Wells’ ([2]; Table 7, 17.5 g ae/ha): 0% | Mean Visual Injury (%)-21 Days After Application ORYSA ‘Wells’ ([2]; Table 7, 35 g ae/ha): 0% | Mean Visual Injury (%)-21 Days After Application ORYSA ‘Wells’ ([2]; Table 7, 70 g ae/ha): 0% | Mean Visual Injury (%)-21 Days After Application ORYSA ‘Wells’ ([2]; Table 7, 140 g ae/ha): 5% | GR50 ORYSA ‘Wells’ [2]: >140 g ae/ha | GR90 ORYSA ‘Wells’ [2]: >140 g ae/ha | Mean Visual Injury (%)-21 Days After Application SCPJU ([3]; Table 7, 8.75 g ae/ha): 67% | Mean Visual Injury (%)-21 Days After Application SCPJU ([3]; Table 7, 17.5 g ae/ha): 90% | Mean Visual Injury (%)-21 Days After Application SCPJU ([3]; Table 7, 35 g ae/ha): 100% | Mean Visual Injury (%)-21 Days After Application SCPJU ([3]; Table 7, 70 g ae/ha): 100% | Mean Visual Injury (%)-21 Days After Application SCPJU ([3]; Table 7, 140 g ae/ha): 100% | GR50 SCPJU [3]: <8.75 g ae/ha | GR90 SCPJU [3]: 21.1 g ae/ha | Mean Visual Injury (%)-21 Days After Application ORYSA ‘M202’ ([4]; Table 7, 8.75 g ae/ha): 0% | Mean Visual Injury (%)-21 Days After Application ORYSA ‘M202’ ([4]; Table 7, 17.5 g ae/ha): 0% | Mean Visual Injury (%)-21 Days After Application ORYSA ‘M202’ ([4]; Table 7, 35 g ae/ha): 0% | Mean Visual Injury (%)-21 Days After Application ORYSA ‘M202’ ([4]; Table 7, 70 g ae/ha): 7% | Mean Visual Injury (%)-21 Days After Application ORYSA ‘M202’ ([4]; Table 7, 140 g ae/ha): 8% | GR50 ORYSA ‘M202’ [4]: >140 g ae/ha | GR90 ORYSA ‘M202’ [4]: >140 g ae/ha | Mean Visual Injury (%)-21 Days After Application ECHCG ([5]; Table 7, 8.75 g ae/ha): 0% | Mean Visual Injury (%)-21 Days After Application ECHCG ([5]; Table 7, 17.5 g ae/ha): 7% | Mean Visual Injury (%)-21 Days After Application ECHCG ([5]; Table 7, 35 g ae/ha): 90% | Mean Visual Injury (%)-21 Days After Application ECHCG ([5]; Table 7, 70 g ae/ha): 98% | Mean Visual Injury (%)-21 Days After Application ECHCG ([5]; Table 7, 140 g ae/ha): 100% | GR50 ECHCG [5]: 25.4 g ae/ha | GR90 ECHCG [5]: 52.9 g ae/ha | Mean Visual Injury (%)-21 Days After Application MOOVA ([6]; Table 7, 8.75 g ae/ha): 100% | Mean Visual Injury (%)-21 Days After Application MOOVA ([6]; Table 7, 17.5 g ae/ha): 100% | Mean Visual Injury (%)-21 Days After Application MOOVA ([6]; Table 7, 35 g ae/ha): 100% | Mean Visual Injury (%)-21 Days After Application MOOVA ([6]; Table 7, 70 g ae/ha): 100% | Mean Visual Injury (%)-21 Days After Application MOOVA ([6]; Table 7, 140 g ae/ha): 100% | GR50 MOOVA [6]: <8.75 g ae/ha | GR90 MOOVA [6]: <8.75 g ae/ha
